Reference: ChEMBL document CHEMBL4425146, “Synthesis and biological evaluation of N(9)-substituted harmine derivatives as potential anticancer agents” (Bioorg Med Chem Lett, 2016)

Experiments:
MCF7 = assay: Cytotoxicity against human MCF7 cells assessed as inhibition of cell growth after 48 hrs by MTT assay; format: functional, cell-based; details: MCF7, 48 h
SGC-7901 = assay: Cytotoxicity against human SGC7901 cells assessed as inhibition of cell growth after 48 hrs by MTT assay; format: functional, cell-based; details: SGC-7901, 48 h
SMMC-7721 = assay: Cytotoxicity against human SMMC7721 cells assessed as inhibition of cell growth after 48 hrs by MTT assay; format: functional, cell-based; details: SMMC-7721, 48 h
A549 [1] = assay: Cytotoxicity against human A549 cells assessed as inhibition of cell growth after 48 hrs by MTT assay; format: functional, cell-based; details: A549, 48 h
P338 = assay: Cytotoxicity against mouse […] cells assessed as inhibition of cell growth after 3 days by MTT assay; format: functional, cell-based; details: 72 h
HL-60 [2] = assay: Cytotoxicity against human HL60 cells assessed as inhibition of cell growth after 3 days by MTT assay; format: functional, cell-based; details: HL-60, 72 h
COLO 205 = assay: Cytotoxicity against human COLO205 cells assessed as inhibition of cell growth after 48 hrs by MTT assay; format: functional, cell-based; details: COLO 205, 48 h
HL-60 [3] = assay: Cytotoxicity against human HL60 cells assessed as inhibition of cell growth after 48 hrs by MTT assay; format: functional, cell-based; details: HL-60, 48 h
A549 [4] = assay: Cell cycle arrest in human A549 cells assessed as accumulation at sub-G1 phase at 0.1 uM after 48 hrs by propidium iodide staining based flow cytometry (reference value: 2.78 %); format: functional
A549 [5] = assay: Cell cycle arrest in human A549 cells assessed as accumulation at G0/G1 phase at 0.1 uM after 48 hrs by propidium iodide staining based flow cytometry (reference value: 53.54 %); format: functional
A549 [6] = assay: Cell cycle arrest in human A549 cells assessed as accumulation at S phase at 0.1 uM after 48 hrs by propidium iodide staining based flow cytometry (reference value: 30.85 %); format: functional
A549 [7] = assay: Cell cycle arrest in human A549 cells assessed as accumulation at G2/M phase at 0.1 uM after 48 hrs by propidium iodide staining based flow cytometry (reference value: 14.62%); format: functional
A549 [8] = assay: Cell cycle arrest in human A549 cells assessed as accumulation at sub-G1 phase at 0.5 uM after 48 hrs by propidium iodide staining based flow cytometry (reference value: 2.78 %); format: functional
A549 [9] = assay: Cell cycle arrest in human A549 cells assessed as accumulation at G0/G1 phase at 0.5 uM after 48 hrs by propidium iodide staining based flow cytometry (reference value: 53.54 %); format: functional
A549 [10] = assay: Cell cycle arrest in human A549 cells assessed as accumulation at S phase at 0.5 uM after 48 hrs by propidium iodide staining based flow cytometry (reference value: 30.85 %); format: functional
A549 [11] = assay: Cell cycle arrest in human A549 cells assessed as accumulation at G2/M phase at 0.5 uM after 48 hrs by propidium iodide staining based flow cytometry (reference value: 14.62%); format: functional
A549 [12] = assay: Cell cycle arrest in human A549 cells assessed as accumulation at sub-G1 phase at 1 uM after 48 hrs by propidium iodide staining based flow cytometry (reference value: 2.78 %); format: functional
A549 [13] = assay: Cell cycle arrest in human A549 cells assessed as accumulation at G0/G1 phase at 1 uM after 48 hrs by propidium iodide staining based flow cytometry (reference value: 53.54 %); format: functional
A549 [14] = assay: Cell cycle arrest in human A549 cells assessed as accumulation at S phase at 1 uM after 48 hrs by propidium iodide staining based flow cytometry (reference value: 30.85 %); format: functional
A549 [15] = assay: Cell cycle arrest in human A549 cells assessed as accumulation at G2/M phase at 1 uM after 48 hrs by propidium iodide staining based flow cytometry (reference value: 14.62%); format: functional
A549 [16] = assay: Cell cycle arrest in human A549 cells assessed as accumulation at G2/M phase after 48 hrs by propidium iodide staining based flow cytometry; format: functional
A549 [17] = assay: Cell cycle arrest in human A549 cells assessed as accumulation at sub-G1 phase after 48 hrs by propidium iodide staining based flow cytometry; format: functional
A549 [18] = assay: Induction of apoptosis in human A549 cells assessed as viable cells at 0.1 uM after 48 hrs by Annexin V-FITC/propidium iodide staining based flow cytometry (reference value: 96.08 %); format: functional; details: A549, 48 h, read-out: Activity
A549 [19] = assay: Induction of apoptosis in human A549 cells assessed as early apoptotic cells at 0.1 uM after 48 hrs by Annexin V-FITC/propidium iodide staining based flow cytometry (reference value: 0.57 %); format: functional
A549 [20] = assay: Induction of apoptosis in human A549 cells assessed as late apoptotic cells at 0.1 uM after 48 hrs by Annexin V-FITC/propidium iodide staining based flow cytometry (reference value: 2.70 %); format: functional
A549 [21] = assay: Induction of apoptosis in human A549 cells assessed as viable cells at 0.5 uM after 48 hrs by Annexin V-FITC/propidium iodide staining based flow cytometry (reference value: 96.08 %); format: functional; details: A549, 48 h, read-out: Activity
A549 [22] = assay: Induction of apoptosis in human A549 cells assessed as early apoptotic cells at 0.5 uM after 48 hrs by Annexin V-FITC/propidium iodide staining based flow cytometry (reference value: 0.57 %); format: functional
A549 [23] = assay: Induction of apoptosis in human A549 cells assessed as late apoptotic cells at 0.5 uM after 48 hrs by Annexin V-FITC/propidium iodide staining based flow cytometry (reference value: 2.70 %); format: functional
A549 [24] = assay: Induction of apoptosis in human A549 cells assessed as viable cells at 1 uM after 48 hrs by Annexin V-FITC/propidium iodide staining based flow cytometry (reference value: 96.08 %); format: functional; details: A549, 48 h, read-out: Activity
A549 [25] = assay: Induction of apoptosis in human A549 cells assessed as early apoptotic cells at 1 uM after 48 hrs by Annexin V-FITC/propidium iodide staining based flow cytometry (reference value: 0.57 %); format: functional
A549 [26] = assay: Induction of apoptosis in human A549 cells assessed as late apoptotic cells at 1 uM after 48 hrs by Annexin V-FITC/propidium iodide staining based flow cytometry (reference value: 2.70 %); format: functional
A549 [27] = assay: Induction of apoptosis in human A549 cells after 48 hrs by Annexin V-FITC/propidium iodide staining based flow cytometry; format: functional, cell-based

In the case of CCCCCCCCCCCC(=O)n1c2cc(OC)ccc2c2ccnc(C)c21, the IC50 (MCF7) is reported as > 50 µM, the IC50 (SGC-7901) is reported as 8.76 µM and the IC50 (SMMC-7721) is reported as 49.1 µM. It also gave an IC50 (A549 [1]) of 14.6 µM.
COc1ccc(S(=O)(=O)Nc2cccnc2Nc2ccc(O)cc2)cc1 [ABT-751] gave an IC50 (P338) of 0.16 µM and an IC50 (HL-60 [2]) of 0.2 µM.
In the case of CCCCn1c2cc(OC)ccc2c2ccnc(C)c21, the IC50 (MCF7) is reported as > 50 µM, the IC50 (SGC-7901) is reported as 11.3 µM and the IC50 (SMMC-7721) is reported as 28.6 µM. The IC50 (A549 [1]) was 6.09 µM.
Work on COc1ccc2c3ccnc(C)c3n(CCCCCl)c2c1 yielded an IC50 (MCF7) of 2.94 µM, an IC50 (SGC-7901) of 7.21 µM and an IC50 (SMMC-7721) of 17.9 µM. The IC50 (A549 [1]) was 8.73 µM.
In the case of COc1cc(Cn2c3ccc(C(C)=O)cc3c3ccnc(C)c32)cc(OC)c1OC, the IC50 (COLO 205) is reported as 0.52 µM and the IC50 (HL-60 [3]) is reported as 0.03 µM.
COc1ccc2c3ccnc(C)c3n(Cc3ccccc3)c2c1 was tested, and the IC50 (MCF7) was > 50 µM, the IC50 (SGC-7901) was 38.2 µM and the IC50 (SMMC-7721) was 45.6 µM. It also gave an IC50 (A549 [1]) of 7.49 µM.
COc1cccc2c1C(=O)c1c(O)c3c(c(O)c1C2=O)C[C@@](O)(C(=O)CO)C[C@@H]3O[C@H]1C[C@H](N)[C@H](O)[C@H](C)O1 [DOXORUBICIN] showed an IC50 (MCF7) of 0.83 µM, an IC50 (SMMC-7721) of 1.39 µM and an IC50 (A549 [1]) of 0.76 µM.
In the case of COc1ccc2c3ccnc(C)c3n(Cc3cc(F)cc(F)c3)c2c1, the IC50 (MCF7) is reported as > 50 µM, the IC50 (SGC-7901) is reported as 6.47 µM and the IC50 (SMMC-7721) is reported as > 50 µM. The IC50 (A549 [1]) was 18.4 µM.
For COc1ccc2c3ccnc(C)c3n(CCCCBr)c2c1, the IC50 (MCF7) was 0.85 µM, the IC50 (SGC-7901) was 10.6 µM and the IC50 (SMMC-7721) was 8.34 µM. For the same compound, the IC50 (A549 [1]) was 12.2 µM.
In the case of COc1ccc2c3ccnc(C)c3n(CCCCCCBr)c2c1, the IC50 (MCF7) is reported as 0.45 µM, the IC50 (SGC-7901) is reported as 6.94 µM and the IC50 (SMMC-7721) is reported as 3.79 µM. The IC50 (A549 [1]) was 0.87 µM.
In the case of COc1ccc2c3ccnc(C)c3n(S(=O)(=O)c3ccc(C)cc3)c2c1, the IC50 (MCF7) is reported as > 50 µM, the IC50 (SGC-7901) is reported as 1.56 µM and the IC50 (SMMC-7721) is reported as > 50 µM. The IC50 (A549 [1]) was 0.48 µM, the Activity (A549 [4]) was 8.63% and the Activity (A549 [5]) was 53.31%. The Activity (A549 [6]) was 30.27%, the Activity (A549 [7]) was 16.42% and the Activity (A549 [8]) was 21.15%. The Activity (A549 [9]) was 36.99%, the Activity (A549 [10]) was 31.93% and the Activity (A549 [11]) was 31.09%. The Activity (A549 [12]) was 24.88%, the Activity (A549 [13]) was 36.46% and the Activity (A549 [14]) was 25.9%. The Activity (A549 [15]) was 36.64%, the Activity (A549 [16]) was “Dose-dependent effect” and the Activity (A549 [17]) was “Dose-dependent effect”. For the same compound, the viability at 0.1 µM (A549 [18]) was 73.1%, the Activity (A549 [19]) was 2.68% and the Activity (A549 [20]) was 18.76%. It also gave a viability at 0.5 µM (A549 [21]) of 45%, an Activity (A549 [22]) of 11.5% and an Activity (A549 [23]) of 42.79%. For the same compound, the viability at 1 µM (A549 [24]) was 28.2%, the Activity (A549 [25]) was 17.59% and the Activity (A549 [26]) was 54.11%. For the same compound, the Activity (A549 [27]) was “Dose-dependent effect”.
In the case of COc1ccc2c3ccnc(C)c3n(Cc3ccccc3F)c2c1, the IC50 (MCF7) is reported as > 50 µM, the IC50 (SGC-7901) is reported as 43.6 µM and the IC50 (SMMC-7721) is reported as > 50 µM. The IC50 (A549 [1]) was 5.67 µM.
In the case of COc1ccc2c3ccnc(C)c3n(S(=O)(=O)c3ccccc3)c2c1, the IC50 (MCF7) is reported as > 50 µM, the IC50 (SGC-7901) is reported as 5.95 µM and the IC50 (SMMC-7721) is reported as > 50 µM. For the same compound, the IC50 (A549 [1]) was 0.83 µM.
For COc1ccc2c3ccnc(C)c3n(C(=O)c3ccc(C)cc3)c2c1, the IC50 (MCF7) was > 50 µM, the IC50 (SGC-7901) was 2.88 µM and the IC50 (SMMC-7721) was > 50 µM. The IC50 (A549 [1]) was 1.33 µM.
In the case of COc1ccc2c3ccnc(C)c3n(Cc3ccc(C)cc3)c2c1, the IC50 (MCF7) is reported as > 50 µM, the IC50 (SGC-7901) is reported as 5.29 µM and the IC50 (SMMC-7721) is reported as 21.3 µM. It also gave an IC50 (A549 [1]) of 3.89 µM.
